# Reference: ChEMBL document CHEMBL3046906, “Effects of acibenzolar-S-methyl on the suppression of Fusarium wilt of cyclamen” (Crop Prot, 2006)
# The source made the active and inactive calls. The rule behind the calls is not given here.
# Experiments:
# [1] = system: Fusarium oxysporum f. sp. cyclaminis; experiment: Antifungal activity against Fusarium oxysporum f. sp. cyclaminis infested cyclamen seedlings assessed as increase in foliar dry mass at 10 to 50 ug a.i/ml applied as spray; format: functional, organism-based
# Cyclamen persicum [2] = experiment: Phytotoxicity in Cyclamen persicum seedlings assessed as decrease in foliar dry mass at 50 ug a.i/ml applied as spray; format: organism-based; design: scale not given: the % may be the effect or the level left; conditions: in vivo, other
# [3] = system: Fusarium oxysporum f. sp. cyclaminis; experiment: Antifungal activity against 1 CFU of Fusarium oxysporum f. sp. cyclaminis infested cyclamen seedlings assessed as increase in foliar dry mass at 50 ug a.i/ml applied as spray relative to untreated control; format: functional, organism-based
# [4] = system: Fusarium oxysporum f. sp. cyclaminis; experiment: Antifungal activity against Fusarium oxysporum f. sp. cyclaminis infested cyclamen seedlings assessed as delay in development of disease symptoms at 50 ug a.i/ml applied as spray; format: functional
# Cyclamen persicum [5] = experiment: Phytotoxicity in Cyclamen persicum seedlings assessed as visible damage on leaves at 10 to 50 ug a.i/ml applied as spray; format: organism-based; conditions: in vivo, topical_or_ocular
# Cyclamen persicum [6] = experiment: Phytotoxicity in Cyclamen persicum seedlings assessed as decrease in effect on flower quality at 10 to 50 ug a.i/ml applied as spray; format: organism-based; conditions: in vivo, other
# Cyclamen persicum [7] = experiment: Phytotoxicity in Cyclamen persicum seedlings assessed as decrease in foliar dry mass at 10 to 50 ug a.i/ml applied as spray; format: organism-based; design: scale not given: the % may be the effect or the level left; conditions: in vivo, other
# Cyclamen persicum [8] = experiment: Phytotoxicity in Cyclamen persicum seedlings assessed as decrease in effect on flower number at 10 to 50 ug a.i/ml applied as spray; format: organism-based; conditions: in vivo, other
# [9] = system: Fusarium oxysporum f. sp. cyclaminis; experiment: Antifungal activity against 1 CFU of Fusarium oxysporum f. sp. cyclaminis infested cyclamen seedlings assessed as delay in development of decrease severity at 50 ug a.i/ml applied as spray; format: functional, organism-based
# [10] = system: Fusarium oxysporum f. sp. cyclaminis; experiment: Antifungal activity against […] of Fusarium oxysporum f. sp. cyclaminis infested cyclamen seedlings assessed as delay in development of disease symptoms at 50 ug a.i/ml applied as spray relative to untreated control; format: functional, organism-based
smiles,measurement,setting,value
CSC(=O)c1cccc2nnsc12 [ACIBENZOLAR-S-METHYL],Activity,[1],Active
same,Activity,Cyclamen persicum [2],65%
same,Activity,[3],Active
same,Time,[4],20 days
same,Activity,Cyclamen persicum [5],Non-toxic
same,Activity,Cyclamen persicum [6],Non-toxic
same,Activity,Cyclamen persicum [7],36%
same,Activity,Cyclamen persicum [8],Non-toxic
same,Activity,[9],Active
same,Activity,[10],Active
